This is an account of results in ChEMBL document CHEMBL4024791, “Identification of Morpholino-2H-pyrido[3,2-b][1,4]oxazin-3(4H)-ones as Nonsteroidal Mineralocorticoid Antagonists” (J Med Chem, 2018).

By Papp is commonly meant a coefficient for how fast a substance crosses the barrier. The term inhibition denotes the change of the read-out against control, counted positive when it falls. Read a low inhibition as little suppression. Broadly, the IC50 is the point on the concentration scale where inhibition reaches its midpoint. Broadly, the Papp A→B is how fast a substance crosses the layer from the apical side. What is called AUC is the area under the concentration-time curve, a measure of exposure. A high value points to high exposure.

The nature of data set [1]: Apparent permeability in RRCK cells. The format is ADME, cell-based, Canis lupus familiaris, MDCKII-LE. The note with it: dog, MDCK.
The next data set addresses hERG (KCNH2) (Homo sapiens, UniProt Q12809). In words: Displacement of [3H]-dofetilide from human ERG at 10 uM. The note with it: probe [3H]-dofetilide.
Another data set addresses T1, Androgen receptor (Homo sapiens, UniProt P10275).
T1 sequence (P10275 whole entry): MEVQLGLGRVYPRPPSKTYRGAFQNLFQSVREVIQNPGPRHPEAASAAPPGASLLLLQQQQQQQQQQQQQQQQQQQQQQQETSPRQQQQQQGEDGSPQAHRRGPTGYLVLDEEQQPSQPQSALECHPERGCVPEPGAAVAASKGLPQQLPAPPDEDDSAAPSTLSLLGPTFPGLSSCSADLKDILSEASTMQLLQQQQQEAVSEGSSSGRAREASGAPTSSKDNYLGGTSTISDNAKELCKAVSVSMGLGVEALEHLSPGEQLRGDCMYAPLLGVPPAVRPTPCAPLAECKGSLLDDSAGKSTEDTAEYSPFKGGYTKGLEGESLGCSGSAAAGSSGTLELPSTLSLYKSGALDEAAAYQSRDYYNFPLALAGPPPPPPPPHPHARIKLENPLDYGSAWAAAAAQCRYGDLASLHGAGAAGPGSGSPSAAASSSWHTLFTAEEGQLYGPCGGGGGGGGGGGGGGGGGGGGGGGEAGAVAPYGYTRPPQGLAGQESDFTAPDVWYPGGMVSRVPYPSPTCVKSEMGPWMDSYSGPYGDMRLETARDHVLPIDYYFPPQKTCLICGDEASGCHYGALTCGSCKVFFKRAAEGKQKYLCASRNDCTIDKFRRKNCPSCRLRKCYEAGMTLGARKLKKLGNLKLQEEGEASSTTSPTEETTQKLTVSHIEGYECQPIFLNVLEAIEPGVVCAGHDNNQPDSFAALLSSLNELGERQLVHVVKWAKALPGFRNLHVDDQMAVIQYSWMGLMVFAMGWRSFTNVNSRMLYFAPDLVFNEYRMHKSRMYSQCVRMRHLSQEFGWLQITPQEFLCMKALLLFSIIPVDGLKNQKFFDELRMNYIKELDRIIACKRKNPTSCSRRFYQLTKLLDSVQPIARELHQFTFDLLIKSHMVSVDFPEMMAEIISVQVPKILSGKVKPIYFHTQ
Put plainly: Binding affinity to AR (unknown origin). The format is ADME.

Data set [2] is described as follows: Apparent permeability across apical to basolateral side in RRCK cells. Format: ADME, cell-based, Canis lupus familiaris, MDCKII-LE. The note with it: dog, MDCK.
A further data set addresses T2, Glucocorticoid receptor (Homo sapiens, UniProt P04150).
T2 sequence (P04150 whole entry): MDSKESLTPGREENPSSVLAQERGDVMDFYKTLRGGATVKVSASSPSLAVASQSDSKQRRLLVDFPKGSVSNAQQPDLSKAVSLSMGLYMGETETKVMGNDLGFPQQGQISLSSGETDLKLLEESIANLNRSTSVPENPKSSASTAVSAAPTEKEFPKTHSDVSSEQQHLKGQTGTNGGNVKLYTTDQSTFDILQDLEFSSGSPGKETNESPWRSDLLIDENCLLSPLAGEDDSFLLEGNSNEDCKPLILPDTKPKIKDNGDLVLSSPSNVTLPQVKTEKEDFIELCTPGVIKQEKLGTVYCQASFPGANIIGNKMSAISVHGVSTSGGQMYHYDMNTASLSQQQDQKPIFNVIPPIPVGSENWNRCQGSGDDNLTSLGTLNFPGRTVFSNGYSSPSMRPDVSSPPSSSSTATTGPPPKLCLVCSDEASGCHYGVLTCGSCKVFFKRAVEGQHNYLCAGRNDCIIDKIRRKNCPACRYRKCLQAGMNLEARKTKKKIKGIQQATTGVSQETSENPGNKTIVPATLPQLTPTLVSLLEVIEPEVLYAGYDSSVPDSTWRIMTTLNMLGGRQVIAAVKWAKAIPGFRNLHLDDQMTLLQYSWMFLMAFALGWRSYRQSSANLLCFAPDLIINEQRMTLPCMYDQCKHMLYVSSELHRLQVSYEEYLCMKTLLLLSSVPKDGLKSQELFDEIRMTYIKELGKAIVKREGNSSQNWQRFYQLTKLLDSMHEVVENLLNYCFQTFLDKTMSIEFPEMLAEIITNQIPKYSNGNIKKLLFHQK
In words: Binding affinity to GR (unknown origin) expressed in human IM9 cells. The format is cell-based.

The target of a further data set is T3, Progesterone receptor (Homo sapiens, UniProt P06401).
T3 sequence (P06401 whole entry): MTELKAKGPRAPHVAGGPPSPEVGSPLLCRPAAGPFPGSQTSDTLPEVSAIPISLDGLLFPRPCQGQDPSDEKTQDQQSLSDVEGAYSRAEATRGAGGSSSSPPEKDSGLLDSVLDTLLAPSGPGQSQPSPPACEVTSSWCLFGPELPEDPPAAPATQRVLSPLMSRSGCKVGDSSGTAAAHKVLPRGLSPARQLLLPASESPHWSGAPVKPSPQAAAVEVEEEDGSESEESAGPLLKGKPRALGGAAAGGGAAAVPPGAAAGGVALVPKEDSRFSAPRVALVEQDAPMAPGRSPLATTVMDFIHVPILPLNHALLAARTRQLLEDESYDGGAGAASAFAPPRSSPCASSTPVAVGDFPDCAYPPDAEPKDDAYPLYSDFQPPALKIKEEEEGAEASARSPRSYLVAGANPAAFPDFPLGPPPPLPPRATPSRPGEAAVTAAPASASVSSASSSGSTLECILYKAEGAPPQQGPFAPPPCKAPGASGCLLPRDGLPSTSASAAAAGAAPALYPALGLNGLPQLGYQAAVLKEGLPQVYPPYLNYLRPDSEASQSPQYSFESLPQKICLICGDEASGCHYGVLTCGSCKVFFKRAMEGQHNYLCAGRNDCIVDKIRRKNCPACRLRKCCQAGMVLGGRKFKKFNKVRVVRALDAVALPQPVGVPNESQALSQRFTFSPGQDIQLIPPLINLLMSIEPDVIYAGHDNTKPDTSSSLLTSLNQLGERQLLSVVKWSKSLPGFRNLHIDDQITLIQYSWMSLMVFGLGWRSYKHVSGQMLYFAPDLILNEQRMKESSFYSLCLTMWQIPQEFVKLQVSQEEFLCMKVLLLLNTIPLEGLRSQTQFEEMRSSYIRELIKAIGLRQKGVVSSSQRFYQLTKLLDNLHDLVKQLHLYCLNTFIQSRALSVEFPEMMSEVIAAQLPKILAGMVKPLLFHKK
Put plainly: Displacement of [3H]-progesterone from recombinant human His-tagged PR-b after 4 hrs by liquid scintillation counting. In general terms: Loss of bound radioactivity is the signal in a displacement assay; it reports binding, not function.

A short description of data set [3]: Volume of distribution at steady state in dog. The note with it: in vivo, read-out: Vdss. Format: ADME, Canis lupus familiaris.
Data set [4] in a line: AUC in Wistar rat at 30 mg/kg, po administered as single dose measured up to 8 hrs post dose by LC-MS analysis. Format: ADME, organism-based. Further details: time < 8 hr, dose 30 mg/kg, route oral. The note with it: in vivo.

Sequence of hERG (KCNH2) (Q12809 whole entry): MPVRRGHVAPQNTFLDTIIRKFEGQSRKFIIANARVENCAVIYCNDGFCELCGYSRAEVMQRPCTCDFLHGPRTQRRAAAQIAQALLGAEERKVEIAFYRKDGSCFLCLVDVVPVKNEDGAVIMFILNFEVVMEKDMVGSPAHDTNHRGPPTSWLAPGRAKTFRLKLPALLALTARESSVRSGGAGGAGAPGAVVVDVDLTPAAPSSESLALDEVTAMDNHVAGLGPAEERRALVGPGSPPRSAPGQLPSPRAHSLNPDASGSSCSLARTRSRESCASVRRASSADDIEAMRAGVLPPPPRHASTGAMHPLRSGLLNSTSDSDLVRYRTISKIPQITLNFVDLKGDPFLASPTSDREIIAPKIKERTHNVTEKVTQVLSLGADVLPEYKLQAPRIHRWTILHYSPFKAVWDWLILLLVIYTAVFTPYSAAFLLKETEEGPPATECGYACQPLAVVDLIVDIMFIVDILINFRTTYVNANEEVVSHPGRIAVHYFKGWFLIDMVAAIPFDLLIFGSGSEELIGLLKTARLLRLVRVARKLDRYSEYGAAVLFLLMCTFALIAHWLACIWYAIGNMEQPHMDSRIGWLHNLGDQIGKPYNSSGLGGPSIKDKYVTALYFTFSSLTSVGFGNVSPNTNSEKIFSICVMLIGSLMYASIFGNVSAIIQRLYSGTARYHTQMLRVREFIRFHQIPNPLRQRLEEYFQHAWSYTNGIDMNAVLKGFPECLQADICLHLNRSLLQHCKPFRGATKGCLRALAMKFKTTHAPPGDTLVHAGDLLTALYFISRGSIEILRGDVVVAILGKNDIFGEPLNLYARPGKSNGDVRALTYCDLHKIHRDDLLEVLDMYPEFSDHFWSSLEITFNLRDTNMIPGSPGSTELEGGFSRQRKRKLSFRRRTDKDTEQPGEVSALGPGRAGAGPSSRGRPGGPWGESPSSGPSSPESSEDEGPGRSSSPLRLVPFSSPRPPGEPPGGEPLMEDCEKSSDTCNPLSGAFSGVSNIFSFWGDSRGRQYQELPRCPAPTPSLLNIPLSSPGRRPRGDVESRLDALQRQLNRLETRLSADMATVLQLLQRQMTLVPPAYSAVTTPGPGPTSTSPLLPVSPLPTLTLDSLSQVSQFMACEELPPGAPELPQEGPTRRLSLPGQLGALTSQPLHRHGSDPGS

In the case of `O=C1COc2ccc(N3CCOC[C@H]3c3ccccc3)cc2N1`, the Papp in data set [1] amounted to 29.3 ×10⁻⁶ cm/s. Besides, on hERG (KCNH2), testing at 10 µM gave an inhibition of 5%.
On to `C[C@@H]1CN(c2ccc3c(n2)NC(=O)CO3)[C@H](c2ccccc2)CO1`, for which the figures for the 50% inhibitory concentration (IC50) on Androgen receptor, at Glucocorticoid receptor and at Progesterone receptor were above 10 µM, 0.597 µM and above 10 µM, respectively. Also, the Papp A→B in data set [2] came out at 45.9 ×10⁻⁶ cm/s. Also, the Vd in data set [3] was 2.37 L/kg. Further, the AUC at 8 h in data set [4] was determined as 2850 ng·h/mL.
